We go through 20 compounds from US7479500B2, “Antidepressant piperidine derivatives of heterocyclefused benzodioxans” (Wyeth, priority 2002, dated 2009).

Series [1] concerns the target T1, human 5-HT1A receptors (Homo sapiens, UniProt P08908).
T1 construct: expressed in transfected cells; host or cells: CHO cells
T1 sequence (P08908 1-422): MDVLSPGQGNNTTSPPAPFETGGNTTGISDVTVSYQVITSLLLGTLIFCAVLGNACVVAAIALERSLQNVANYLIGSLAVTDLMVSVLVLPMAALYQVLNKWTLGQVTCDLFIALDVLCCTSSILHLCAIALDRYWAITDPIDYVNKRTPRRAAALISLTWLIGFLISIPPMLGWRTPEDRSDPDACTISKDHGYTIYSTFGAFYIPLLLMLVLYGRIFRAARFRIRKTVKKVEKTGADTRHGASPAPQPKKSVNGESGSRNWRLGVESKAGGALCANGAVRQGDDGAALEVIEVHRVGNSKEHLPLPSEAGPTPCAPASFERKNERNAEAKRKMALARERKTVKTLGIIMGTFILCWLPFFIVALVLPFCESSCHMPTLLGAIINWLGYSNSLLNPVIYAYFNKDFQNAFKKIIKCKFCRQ
Kind of series: [3H] 8-OHDPAT displacement from 5-HT1A receptor in transfected CHO cells. The class given is binding. From the text:
High affinity for the serotonin 5-HT1A receptor was established by testing the claimed compound's ability to displace [^3H] 8-OHDPAT (dipropylaminotetralin) from the 5-HT1A serotonin receptor following a modification of the procedure of Hall et al., J. Neurochem. 44, 1685 (1985) which utilizes CHO cells stably transfected with human 5-HT1A receptors.

The target of series [2] is T2, cloned human 5-HT1A receptors (Homo sapiens, UniProt P08908).
T2 construct: expressed in transfected cells
T2 sequence (P08908 1-422): T1 sequence (P08908 1-422)
Kind of series: 35S-GTPγS binding assay for antagonist activity at 5-HT1A receptors. The class given is biochemical. The settings on record: membranes with cloned human 5-HT1A receptors, reversal of agonist 8-OHDPAT; for Emax: read-out: 5-HT1A Function (Imax), maximum inhibitory effect; for IC50: read-out: 5-HT1A Function IC50. As to the method: Antagonist activity at 5-HT1A receptors was established by using a ^35S-GTPγS binding assay similar to that used by Lazareno and Birdsall (Br. J. Pharmacol. 109: 1120, 1993), in which the test compound's ability to affect the binding of ^35S-GTPγS to membranes containing cloned human 5-HT1A receptors was determined. Agonists produce an increase in binding whereas antagonists produce no increase but rather reverse the effects of the standard agonist 8-OHDPAT. The test compound's maximum inhibitory effect is represented as the Imax, while its potency is defined by the IC50.
A general note: GTPγS is a poorly hydrolysed GTP analogue; its binding reports G protein activation.

The target of series [3] is T3, serotonin transporter (Rattus norvegicus, UniProt P31652).
T3 construct: displace ^3H-paroxetine from male rat frontal cortical membranes; from tissue; host or cells: male rat frontal cortex membranes
T3 sequence (P31652 whole entry): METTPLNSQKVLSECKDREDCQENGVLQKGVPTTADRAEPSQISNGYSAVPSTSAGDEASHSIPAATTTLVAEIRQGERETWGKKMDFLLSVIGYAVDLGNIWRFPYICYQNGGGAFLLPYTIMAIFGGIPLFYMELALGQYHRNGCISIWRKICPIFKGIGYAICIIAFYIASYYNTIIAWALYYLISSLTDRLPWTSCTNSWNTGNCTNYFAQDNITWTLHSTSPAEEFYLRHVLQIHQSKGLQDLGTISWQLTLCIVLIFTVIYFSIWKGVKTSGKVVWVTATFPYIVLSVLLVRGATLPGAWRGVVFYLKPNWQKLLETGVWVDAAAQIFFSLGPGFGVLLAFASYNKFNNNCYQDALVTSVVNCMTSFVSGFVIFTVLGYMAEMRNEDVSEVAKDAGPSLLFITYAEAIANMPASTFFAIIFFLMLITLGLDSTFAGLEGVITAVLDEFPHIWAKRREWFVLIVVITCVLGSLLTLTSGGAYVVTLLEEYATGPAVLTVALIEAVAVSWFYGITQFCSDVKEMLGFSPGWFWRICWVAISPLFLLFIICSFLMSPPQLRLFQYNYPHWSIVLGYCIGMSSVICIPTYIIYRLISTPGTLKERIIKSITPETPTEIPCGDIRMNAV
Description: 3H-paroxetine displacement from rat frontal cortical membranes (serotonin transporter affinity). The class given is binding.

Setting [4] is: displacement of [3H] 8-OHDPAT, CHO cells stably transfected with human 5-HT1A receptors, read-out: 5-HT1A Receptor Affinity KI.
The mark [5] stands for this setting: displacement of 3H-paroxetine, male rat frontal cortical membranes, read-out: 5-HT Transporter Affinity KI.

Molecules are shown by their SMILES. Counter-ions that a name gives are not always drawn. Like-named read-outs stand apart in the source and are kept apart here.

In the case of `Cc1ccc2c3c(ccc2n1)OCC(CN1CC=C(c2csc4ccccc24)CC1)O3` (stereo not shown) (as salt: oxalate) [Example 1, 2-(4-Benzo[b]thiophen-3-yl-3,6-dihydro-2H-pyridin-1-ylmethyl)-8-methyl-2,3-dihydro-[1,4]dioxino[2,3-f]quinoline], the melting point (in general, the temperature of the solid-liquid transition) fell in the range of 129 to 133 °C.
`Cc1ccc2c3c(ccc2n1)OCC(CN1CC=C(c2csc4ccc(F)cc24)CC1)O3` (stereo not shown) (as salt: oxalate) [Example 3, 2-[4-(5-Fluoro-benzo[b]thiophen-3-yl)-3,6-dihydro-2H-pyridin-1-ylmethyl]-8-methyl-2,3-dihydro-[1,4]dioxino[2,3-f]quinoline]: the melting point fell in the range of 197 to 201 °C.
Still for that read-out and setting: under `Fc1ccc2scc(C3=CCN(CC4COc5ccc6ncccc6c5O4)CC3)c2c1` (stereo not shown) (as salt: oxalate) [Example 5, 2-[4-(5-Fluoro-benzo[b]thiophen-3-yl)-3,6-dihydro-2H-pyridin-1-ylmethyl]-2,3-dihydro-[1,4]dioxino[2,3-f]quinoline] stands 183 to 185 °C; under `C1=C(c2csc3ccccc23)CCN(CC2COc3ccc4ncccc4c3O2)C1` (stereo not shown) (as salt: oxalate) [Example 6, 2-(4-Benzo[b]thiophen-3-yl-3,6-dihydro-2H-pyridin-1-ylmethyl)-2,3-dihydro-[1,4]dioxino[2,3-f]quinoline], 178 to 180 °C; under `Cc1nc2ccc3c(c2o1)OC(CN1CC=C(c2csc4ccccc24)CC1)CO3` (stereo not shown) (as salt: oxalate) [Example 9, 8-(4-Benzo[b]thiophen-3-yl-3,6-dihydro-2H-pyridin-1-ylmethyl)-2-methyl-7,8-dihydro-[1,4]dioxino[2,3-g][1,3]benzoxazole], 126 to 129 °C.
Same read-out and setting: the result for `Cc1ccc2c3c(ccc2n1)OCC(CN1CC=C(c2cccc4ccsc24)CC1)O3` (stereo not shown) (as salt: oxalate) [Example 10, 2-(4-Benzo[b]thiophen-7-yl-3,6-dihydro-2H-pyridin-1-ylmethyl)-8-methyl-2,3-dihydro-[1,4]dioxino[2,3-f]quinoline] reads 183 to 185 °C.
Take `Cc1ccc2c3c(ccc2n1)OCC(CN1CC=C(c2csc4ccccc24)CC1)O3` (stereo not shown) [Example 1, 2-(4-Benzo[b]thiophen-3-yl-3,6-dihydro-2H-pyridin-1-ylmethyl)-8-methyl-2,3-dihydro-[1,4]dioxino[2,3-f]quinoline]: the affinity in series [1] corresponds to a Ki of 4.89 nM. Besides, in series [2], the Emax is 100% and the IC50 (commonly the point on the concentration scale where inhibition reaches its midpoint) was 499 nM. In addition, the affinity in series [3], expressed as Ki, was 9.25 nM.
In the case of `Cc1ccc2c3c(ccc2n1)OCC(CN1CC=C(c2cc4ccccc4s2)CC1)O3` (stereo not shown) [Example 2, 2-(4-Benzo[b]thiophen-2-yl-3,6-dihydro-2H-pyridin-1-ylmethyl)-8-methyl-2,3-dihydro-[1,4]dioxino[2,3-f]quinoline], the melting point was in the range of 174 to 176 °C. Besides, the Ki (usually the dissociation constant of the complex between target and ligand, obtained from inhibition or displacement) in series [1] (setting [4]) was 21.6 nM. The compound also had a Ki in series [3] of 78 nM.
With `Cc1ccc2c3c(ccc2n1)OCC(CN1CC=C(c2csc4ccc(F)cc24)CC1)O3` (stereo not shown) [Example 3, 2-[4-(5-Fluoro-benzo[b]thiophen-3-yl)-3,6-dihydro-2H-pyridin-1-ylmethyl]-8-methyl-2,3-dihydro-[1,4]dioxino[2,3-f]quinoline], the inhibition constant (Ki) in series [1] came out at 15.9 nM; in series [3], 18.5 nM. The Emax in series [2] was found to be 87.4%. In addition, the IC50 in series [2] came out at 437 nM.
In the same order, the values of `COc1cccc2c(C3=CCN(C[C@H]4COc5ccc6nc(C)ccc6c5O4)CC3)coc12` [Example 4, 2-[4-(7-Methoxy-benzofuran-3-yl)-3,6-dihydro-2H-pyridin-1-ylmethyl]-8-methyl-2,3-dihydro-[1,4]dioxino[2,3-f]guinoline] are 2.66 nM, 70 nM, 91% and 167 nM.
The compound `Fc1ccc2scc(C3=CCN(CC4COc5ccc6ncccc6c5O4)CC3)c2c1` (stereo not shown) [Example 5, 2-[4-(5-Fluoro-benzo[b]thiophen-3-yl)-3,6-dihydro-2H-pyridin-1-ylmethyl]-2,3-dihydro-[1,4]dioxino[2,3-f]quinoline] yielded a Ki in series [1] of 23.4 nM. Besides, in series [2], the Emax was found to be 30% and the IC50 is 1000 nM. Also, in series [3], the Ki was 35 nM.
In the same order, the values of `C1=C(c2csc3ccccc23)CCN(CC2COc3ccc4ncccc4c3O2)C1` (stereo not shown) [Example 6, 2-(4-Benzo[b]thiophen-3-yl-3,6-dihydro-2H-pyridin-1-ylmethyl)-2,3-dihydro-[1,4]dioxino[2,3-f]quinoline] are 14.5 nM, 100%, 146 nM and 8.5 nM.
In the same order, the values of `C1=C(c2csc3ccccc23)CCN(CC2COc3ccc4[nH]ccc4c3O2)C1` (stereo not shown) [Example 7, 2-(4-Benzo[b]thiophen-3-yl-3,6-dihydro-2H-pyridin-1-ylmethyl)-2,3-dihydro-7H-[1,4]dioxino[2,3-e]indole] are 4.74 nM, 100%, 25.8 nM and 2.48 nM.
In the same order, the values of `Fc1ccc2scc(C3=CCN(C[C@H]4COc5ccc6[nH]ccc6c5O4)CC3)c2c1` [Example 8, 2-[4-(5-Fluoro-benzo[b]thiophen-3-yl)-3,6-dihydro-2H-pyridin-1-ylmethyl]-2,3-m-dihydro-7H-[1,4]dioxino[2,3-e]indole] are 3.45 nM, 100%, 147 nM and 33 nM.
As for `Cc1nc2ccc3c(c2o1)OC(CN1CC=C(c2csc4ccccc24)CC1)CO3` (stereo not shown) [Example 9, 8-(4-Benzo[b]thiophen-3-yl-3,6-dihydro-2H-pyridin-1-ylmethyl)-2-methyl-7,8-dihydro-[1,4]dioxino[2,3-g][1,3]benzoxazole], the affinity in series [1], expressed as Ki, was 20.2 nM. In addition, in series [2], the Emax came out at 50% and the IC50 amounted to 1980 nM. The affinity in series [3] corresponds to a Ki of 13 nM.
In the same order, the values of `Cc1ccc2c3c(ccc2n1)OCC(CN1CC=C(c2cccc4ccsc24)CC1)O3` (stereo not shown) [Example 10, 2-(4-Benzo[b]thiophen-7-yl-3,6-dihydro-2H-pyridin-1-ylmethyl)-8-methyl-2,3-dihydro-[1,4]dioxino[2,3-f]quinoline] are 34.9 nM, 40.5%, 392 nM and 10 nM.
In turn, `Cc1ccc2c3c(ccc2n1)OCC(CN1CC=C(c2cc4ccccc4o2)CC1)O3` (stereo not shown) [Example 11, 2-(4-Benzofuran-2-yl-3,6-dihydro-2H-pyridin-1-ylmethyl)-8-methyl-2,3-dihydro-[1,4]dioxino[2,3-f]quinoline] displayed a melting point of 149 to 150 °C. This compound had a Ki in series [1] of 15.7 nM. Also, in series [2], the Emax was found to be 70% and the IC50 came out at 15500 nM. The Ki in series [3] (setting [5]) came to 213 nM.
Turning to `Cc1ccc2c3c(ccc2n1)OCC(CN1CCC(c2cc4ccccc4o2)CC1)O3` (stereo not shown) [Example 12, 2-(4-Benzofuran-2-yl-piperidin-1-ylmethyl)-8-methyl-2,3-dihydro-[1,4]dioxino[2,3-f]quinoline], the melting point lay within 103 to 104 °C. Further, the Ki in series [1] (setting [4]) was determined as 8.67 nM. Besides, in series [2], the Emax was determined as 100% and the concentration for half-maximal inhibition (IC50) is 590 nM. The Ki in series [3] (setting [5]) amounted to 109 nM.
With `Cc1ccc2c3c(ccc2n1)OCC(CN1CC=C(c2csc4ccc(Cl)cc24)CC1)O3` (stereo not shown) [Example 13, 2-[4-(5-Chloro-benzo[b]thiophen-3-yl)-3,6-dihydro-2H-pyridin-1-ylmethyl]-8-methyl-2,3-dihydro-[1,4]dioxino[2,3-f]quinoline], the Ki in series [1] (setting [4]) was 135 nM. In addition, in series [2], the Emax worked out at 100% and the IC50 was 2520 nM. Moreover, the Ki in series [3] worked out at 94 nM.
With `Cc1ccc2c3c(ccc2n1)OCC(CN1CCC(c2nc4ccccc4o2)CC1)O3` (stereo not shown) [Example 14, 2-(4-Benzoxazol-2-yl-piperidin-1-ylmethyl)-8-methyl-2,3-dihydro-[1,4]dioxino[2,3-f]quinoline], the melting point was 128 to 130 °C. Besides, the Ki in series [1] (setting [4]) came to 19.8 nM. Also, in series [2], the Emax was 100% and the IC50 was 167 nM. For the same compound, the Ki in series [3] (setting [5]) turned out to be 17 nM.
